Measurements reported in patent US20200003760A1, “IN-VITRO METHODS FOR CLASSIFYING DRUGS ACCORDING TO THEIR POTENTIAL TO CAUSE LIVER CELL INJURY” (Board of Trustees of Michigan State University, priority 2018, published 2020).
Entries after “also recorded” stand apart in the source; their conditions may differ. Read-outs that look alike come from different tables or passages of the source.

Legend:
[1] = tested on: HepG2 cells; test: Drug/cytokine-induced cytotoxicity (% LDH release) concentration-response in HepG2 cells; format: cell-based, human; set-up: key to Deltadiff: LDH release percentage points (drug/TNF Delta minus drug/VEH Delta); conditions: for R10 IFN: with IFN; for R10 TNF: with TNF; for R10 TNF/IFN / EC10 TNF/IFN: with TNF and IFN; for Deltadiff: Delta of drug/TNF curve minus Delta of drug/VEH curve (LDH percentage); for cytotoxic interaction of drug with TNF / synergy with cytokines to kill HepG2 cells / cytotoxicity of drug on its own (LDH release) / effect of IFN coexposure on the drug/TNF cytotoxic interaction: HepG2, 24 h; for cytotoxic interaction of drug with TNF: TNF 10 ng/ml; for synergy with cytokines to kill HepG2 cells: TNF and/or IFN; for cytotoxicity of drug on its own (LDH release): absence of cytokines; for Emax / D10 (LDH rise of at least 10 points, yes/no): Homo sapiens; for TNF change: D10TNF − D10VEH; for effect of IFN coexposure on the drug/TNF cytotoxic interaction: TNF and IFN 10 ng/ml each; for EC10: value corresponding to 10% of Delta (max-min); for EC10 / EC10 IFN / EC10 TNF / EC10 TNF/IFN: NA = no significant increase; for EC10 IFN / EC10 TNF / EC10 TNF/IFN: value corresponding to 10% of Delta; for EC10 IFN: with IFN 10 ng/ml; for EC10 TNF: with TNF 10 ng/ml
Procedure: Cells were passed or used for experiments when they reached approximately 80% confluence. Cells were used at passage 6-16.
HepG2 cells were plated at a density of 4×10^4 cells per well in black-walled, 96-well, tissue culture plates and were allowed to attach overnight before being treated with compounds. Drugs were reconstituted in vehicles consisting of sterile water or DMSO (concentration less than 0.5%). Cells were treated with various concentrations of the drug or its vehicle (control) alone or in combination with the cytokines TNF (10 ng/ml) and/or IFN (10 ng/ml) or their PBS vehicle (VEH). Cytotoxicity was evaluated as lactate dehydrogenase (LDH) activity released from the cells into culture medium using the Homogeneous Membrane Integrity Assay kit from Promega (Madison, Wis.).
Concentration-response curves were generated for 24 drugs, 14 of which are associated with human IDILI and 10 of which are not. […] This was necessary because four-parameter logistic modeling used in the statistical analysis requires well defined, sigmoidal concentration-response curves. Cells were exposed to drug/cytokine combinations for 24 hours. For analysis of drug concentration-response data, concentrations of each drug were expressed as a fraction of its Cmax.
Defining covariates: four-parameter logistic model. In the first phase, variables (potential covariates) for use in the classification analysis were defined from the analysis of drug concentration-response data. Initially, a one-way analysis of variance (ANOVA) was used as an omnibus test to determine if a particular treatment (e.g. drug alone or in combination with TNF and/or IFN) caused a significant change in LDH release relative to baseline (i.e., LDH release in the absence of drug, hereafter designated “min”). The criterion for significance for the ANOVA was set at α=0.01. A 1% level of significance was used to rule out more vigorously marginal relationships between concentration and response.
where LDH(x) is the percentage of LDH released at a given concentration x; x=[drug]/Cmax; min=the % LDH release at 0 drug concentration (i.e., baseline); and max=the maximal LDH response (i.e., maximum % LDH release).
where D10 is a categorical variable related to reaching a threshold LDH response above which a drug is classified as positively associated with IDILI. D10 is defined as 0 if Delta<10% LDH release and as 1 if Delta≥10% LDH release.
The base covariate R10 represents the [drug]/Cmax value associated with an increase in 10 LDH percentage points above min for a particular treatment condition and was determined by the equation:
R10 was considered to be 0 when the Delta<10% LDH (i.e. when D10=0).
EC50 quotient, EC10 quotient and R10 quotient represent the ratio between the EC50, EC10 or R10 of the drug/cytokine concentration-response curve and the respective value for the drug/VEH concentration-response curve. In some instances, the value derived from this calculation is indeterminate (i.e. when the denominator=0). In order to incorporate the quotient values into the classification models described below, the categorical variable “Q” was used to eliminate the possibility of the quotient being indeterminate. Q is defined as 0 if Delta VEH and/or Delta cytokine is <10% LDH and 1 if both Delta VEH and Delta cytokine are ≥10% LDH. […] The same condition was applied for calculation of EC10 quotient and R10 quotient.
Deltadiff represents the difference between the Delta of the drug/cytokine concentration-response curve and the Delta of the drug/VEH curve. In other words, Deltadiff=(Delta cytokine)−(Delta VEH). FIG. 1 graphically illustrates several of the covariates defined above. […] In addition to the covariates derived from the concentration-response curves, the maximal therapeutic plasma drug concentration (Cmax) in human patients was used in some models (Table 1).

[2] = cited from earlier work; for True classification: IDILI in human patients; for IDILI liability: criteria of Xu et al. (2008)
[3] = maximal plasma concentration after pharmacologic dosing in human patients; cited from earlier work
[4] = 10 percent increase in LDH response above min, 0 when D10 = 0, drug alone (VEH)
[5] = 10 percent increase in LDH response above min, 0 when D10 = 0
[6] = HepG2, categorical, Delta threshold 10 LDH percentage points, drug alone (VEH), read-out: D10
[7] = HepG2, maximal LDH response, drug alone (VEH), 24 h, read-out: max
[8] = HepG2, categorical, Delta threshold 10 LDH percentage points, drug alone (VEH)

SMILES	R10 [1, 4]	R10 IFN [1, 5]	R10 TNF [1, 5]	R10 TNF/IFN [1, 5]	Deltadiff [1]	cytotoxic interaction of drug with TNF [1]	cytotoxicity of drug on its own (LDH release) [1]	Emax [1, 6]	Emax [1, 7]	TNF change ([1]; categorical)	True classification [2]	IDILI liability [2]	Cmax [3]	EC10 ([1]; drug alone (VEH))	EC10 IFN [1]	EC10 TNF [1]	EC10 TNF/IFN [1]	other results
CC(C)C(=O)Nc1ccc([N+](=O)[O-])c(C(F)(F)F)c1 [Flutamide]	0 [drug]/Cmax	0 [drug]/Cmax	0 [drug]/Cmax	0 [drug]/Cmax	0.4	very small but statistically significant increases in LDH release	statistically significant increase in LDH release; also recorded: very small but statistically significant increases in LDH release	< 10%	24.6%	0	IDILI+	IDILI+	0.36 µM					synergy with cytokines to kill HepG2 cells [1]: did not synergize with cytokines to kill HepG2 cells
COc1c(N2C[C@@H]3CCCN[C@@H]3C2)c(F)cc2c(=O)c(C(=O)O)cn(C3CC3)c12 [Moxifloxacin]	0 [drug]/Cmax	0 [drug]/Cmax	0 [drug]/Cmax	0 [drug]/Cmax	0			< 10%	9.7%	0			6.2 µM					
O=C1CC2(CCCC2)CC(=O)N1CCCCN1CCN(c2ncccn2)CC1 [Buspirone]	0 [drug]/Cmax	0 [drug]/Cmax	0 [drug]/Cmax	0 [drug]/Cmax	0			< 10%	17.6%	0	IDILI−	IDILI−	0.005 µM					
CC[C@H]1OC(=O)[C@H](C)C(=O)[C@H](C)[C@@H](O[C@@H]2O[C@H](C)C[C@H](N(C)C)[C@H]2O)[C@](C)(OC)C[C@@H](C)C(=O)[C@H](C)[C@H]2N(CCCCn3cnc(-c4cccnc4)c3)C(=O)O[C@]12C [Telithromycin]	76.6 [drug]/Cmax	81.3 [drug]/Cmax	50.5 [drug]/Cmax	39.3 [drug]/Cmax	−17.1	TNF significantly enhanced the cytotoxicity	statistically significant increase in LDH release		117%	0	IDILI+	IDILI+	2.77 µM	77.0 [drug]/Cmax	80.7 [drug]/Cmax	47.7 [drug]/Cmax	39.0 [drug]/Cmax	effect of IFN coexposure on the drug/TNF cytotoxic interaction [1]: coexposure to IFN enhanced the cytotoxic interaction; D10 (LDH rise of at least 10 points, yes/no) [1, 8]: > 10%
CCCC(CCC)C(=O)O [Valproic Acid]		51.3 [drug]/Cmax	23.3 [drug]/Cmax		37.1				44.5%	0	IDILI+		175 µM		23.4 [drug]/Cmax			
CCc1ccc(CCOc2ccc(CC3SC(=O)NC3=O)cc2)nc1 (stereo not drawn) [Pioglitazone]	80.1 [drug]/Cmax	84.6 [drug]/Cmax	84.5 [drug]/Cmax	87.3 [drug]/Cmax	0.8		caused cytotoxicity on its own		44.1%	0	IDILI−	IDILI−	2.67 µM	71.4 [drug]/Cmax	74.2 [drug]/Cmax	72.8 [drug]/Cmax	81.8 [drug]/Cmax	synergy with cytokines to kill HepG2 cells [1]: not enhanced by the addition of cytokines; D10 (LDH rise of at least 10 points, yes/no) [1, 8]: > 10%
CC(C)Cc1ccc(C(C)C(=O)O)cc1 (stereo not drawn) [Ibuprofen]	51.7 [drug]/Cmax	51.3 [drug]/Cmax	14.4 [drug]/Cmax	15.5 [drug]/Cmax	3.9	TNF significantly enhanced the cytotoxicity	statistically significant increase in LDH release	> 10%	101%	0			164 µM	50.9 [drug]/Cmax	50.7 [drug]/Cmax	14.1 [drug]/Cmax	14.6 [drug]/Cmax	
C[C@H]1COc2c(N3CCN(C)CC3)c(F)cc3c(=O)c(C(=O)O)cn1c23 [Levofloxacin]	0 [drug]/Cmax	0 [drug]/Cmax	0 [drug]/Cmax	0 [drug]/Cmax	0			< 10%	14%	0			15.7 µM					
O=C(O)Cc1ccccc1Nc1c(Cl)cccc1Cl [Diclofenac]		0 [drug]/Cmax	28.3 [drug]/Cmax	26.7 [drug]/Cmax	21.0	synergized with TNF to cause cytotoxicity	caused no cytotoxicity on their own		15.6%	1						23.9 [drug]/Cmax	23.2 [drug]/Cmax	R10 [1]: 0 [drug]/Cmax; effect of IFN coexposure on the drug/TNF cytotoxic interaction [1]: coexposure to IFN enhanced the cytotoxic interaction; Emax ([1]; HepG2, read-out: D10): < 10%
